Laboratory results reported in patent publication US20070128217A1 (priority 2003, published 2007).

Columns and labels:
[1] = tested on: antibodies in sera from SARS patients (sera 1a, 1b, 2, 6, 37, 62, London, SARS-yellow, SARS-green); type: binding, human; set-up: Binding of serum 6 to linear peptides of protein X1 of SARS-CoV Urbani / Binding of serum 37 to linear peptides of protein X1 of SARS-CoV Urbani / Binding of serum 6 to looped/cyclic peptide (PEPSCAN-ELISA) / Binding of serum 37 to looped/cyclic peptide (PEPSCAN-ELISA) / Binding of serum 37 to looped/cyclic peptides of protein X1 of SARS-CoV Urbani / Binding of serum 6 to linear peptides of protein X2 / Binding of serum 37 to linear peptides of protein X2 / Binding of serum 37 to looped/cyclic peptides of protein X2 of SARS-CoV Urbani / Binding of serum 6 to linear peptides of protein M of SARS-CoV Urbani / Binding of serum 37 to linear peptides of protein M of SARS-CoV Urbani / Binding of serum 6 to looped/cyclic peptides of protein M of SARS-CoV Urbani / Binding of serum 37 to looped/cyclic peptides of protein M of SARS-CoV Urbani / Binding of serum 6 to linear peptides of protein X3 of SARS-CoV Urbani / Binding of serum 37 to linear peptides of protein X3 of SARS-CoV Urbani / Binding of serum 37 to looped/cyclic peptides of protein X3 of SARS-CoV Urbani / Binding of serum 6 to linear peptides of protein X4 of SARS-CoV Urbani / Binding of serum 37 to linear peptides of protein X4 of SARS-CoV Urbani / Binding of serum 37 to looped/cyclic peptides of protein X4 of SARS-CoV Urbani / Binding of serum 6 to linear peptides of protein X5 of SARS-CoV Urbani / Binding of serum 37 to linear peptides of protein X5 of SARS-CoV Urbani / Binding of serum 37 to looped/cyclic peptides of protein X5 of SARS-CoV Urbani / Binding of serum 6 to linear peptides of protein N of SARS-CoV Urbani / Binding of serum 37 to linear peptides of protein N of SARS-CoV Urbani / Binding of serum 6 to linear peptide (PEPSCAN-ELISA) / Binding of serum 1a to looped/cyclic peptides of protein N of SARS-CoV Urbani / Binding of serum 1b to looped/cyclic peptides of protein N of SARS-CoV Urbani / Binding of serum 2 to looped/cyclic peptides of protein N of SARS-CoV Urbani / Binding of serum 6 to looped/cyclic peptides of protein N of SARS-CoV Urbani / Binding of serum 37 to looped/cyclic peptides of protein N of SARS-CoV Urbani / Binding of serum 62 to looped/cyclic peptides of protein N of SARS-CoV Urbani / Binding of serum London to looped/cyclic peptides of protein N of SARS-CoV Urbani / Binding of serum SARS-green to looped/cyclic peptides of protein N of SARS-CoV Urbani: unit not given here
[2] = tested on: rabbit serum obtained by immunizing a rabbit with the SARS-CoV strain Frankfurt 1; type: binding; set-up: Binding of a rabbit serum to linear peptides / Binding of a rabbit serum to looped peptides / Rabbit serum linear peptides / Rabbit serum looped peptides / Binding of a rabbit serum to linear peptides of protein N of SARS-CoV Urbani (Rabbit serum linear peptides) / Binding of a rabbit serum to looped/cyclic peptides of protein N of SARS-CoV Urbani (Rabbit serum looped peptides): unit not given here
[3] = tested on: recombinant human anti-SARS-CoV antibody 03-018; type: binding; set-up: Binding of antibody 03-018 to linear peptides of the N protein of SARS-CoV Urbani / Binding of antibody 03-018 to looped/cyclic peptides of the N protein of SARS-CoV Urbani: unit not given here
[4] = tested on: control sera (pooled serum of ten healthy LUMC hospital workers; commercial negative donor pooled serum from the Dutch bloodbank); type: binding, human; set-up: Binding of Control serum LUMC to linear peptides / Binding of Control serum Blood-bank to linear peptides / Binding of Control serum LUMC to looped peptides / Binding of Control Serum Blood-Bank to Looped peptides / Binding of Control serum LUMC to linear peptides of the protein M of SARS-CoV Urbani / Binding of Control serum Blood-bank to linear peptides of the protein M of SARS-CoV Urbani / Binding of Control serum LUMC to looped peptides of the protein M of SARS-CoV Urbani / Binding of Control Serum Blood-Bank to Looped peptides of the protein M of SARS-CoV Urbani: unit not given here

| Sequence | Binding of serum 1a to linear peptides of protein N of SARS-CoV Urbani [1] | Binding of serum 1a to looped/cyclic peptides of protein N of SARS-CoV Urbani [1] | Binding of serum 1b to linear peptides of protein N of SARS-CoV Urbani [1] | Binding of serum 1b to looped/cyclic peptides of protein N of SARS-CoV Urbani [1] | Binding of serum 2 to linear peptides of protein N of SARS-CoV Urbani [1] | Binding of serum 2 to looped/cyclic peptides of protein N of SARS-CoV Urbani [1] | Binding of serum 6 to linear peptides of protein N of SARS-CoV Urbani [1] | Binding of serum 6 to looped/cyclic peptides of protein N of SARS-CoV Urbani [1] | Binding of serum 37 to linear peptides of protein N of SARS-CoV Urbani [1] | Binding of serum 37 to looped/cyclic peptides of protein N of SARS-CoV Urbani [1] | Binding of serum 62 to looped/cyclic peptides of protein N of SARS-CoV Urbani [1] | Binding of serum London to looped/cyclic peptides of protein N of SARS-CoV Urbani [1] | Binding of serum SARS-green to looped/cyclic peptides of protein N of SARS-CoV Urbani [1] | Binding of serum SARS-yellow to looped/cyclic peptides of protein N of SARS-CoV Urbani [1] | Binding of antibody 03-018 to linear peptides of the N protein of SARS-CoV Urbani [3] | Binding of antibody 03-018 to looped/cyclic peptides of the N protein of SARS-CoV Urbani [3] | Binding of Control Serum Blood-Bank to Looped peptides [4] | Binding of Control serum Blood-bank to linear peptides [4] | Binding of Control serum LUMC to linear peptides [4] | Binding of Control serum LUMC to looped peptides [4] | further results |
| --- | --- | --- | --- | --- | --- | --- | --- | --- | --- | --- | --- | --- | --- | --- | --- | --- | --- | --- | --- | --- | --- |
| TGPEASLPYGANKEG | 0.3 | 0.3 | 0.2 | 0.2 | 0.3 | 0.5 | 0.3 | 0.4 | 0.7 | 0.6 | 0.5 | 0.6 | 0.7 | 0.4 | 0.1 | 0.2 | 0.8 | 0.9 | 1.1 | 0.6 | Binding of serum 62 to linear peptides of protein N of SARS-CoV Urbani [1]: 0.9; Binding of serum London to linear peptides of protein N of SARS-CoV Urbani [1]: 0.7; Binding of serum SARS-green to linear peptides of protein N of SARS-CoV Urbani [1]: 0.8; Binding of serum SARS-yellow to linear peptides of protein N of SARS-CoV Urbani [1]: 0.6; Binding of a rabbit serum to linear peptides of protein N of SARS-CoV Urbani (Rabbit serum linear peptides) [2]: 0.1; Binding of a rabbit serum to looped/cyclic peptides of protein N of SARS-CoV Urbani (Rabbit serum looped peptides) [2]: 0.5 |
| TKQYNVTQAFGRRGP |  | 0.4 |  | 0.2 |  | 0.5 |  | 0.3 |  | 0.7 | 0.7 | 0.5 | 0.4 | 0.6 | 0.1 | 0.3 | 0.9 | 0.8 | 0.8 | 0.9 | Binding of serum 1a to linear peptide (PEPSCAN-ELISA) [1]: 0.3; Binding of serum 1b to linear peptide (PEPSCAN-ELISA) [1]: 0.1; Binding of serum 2 to linear peptide (PEPSCAN-ELISA) [1]: 0.2; Binding of serum 6 to linear peptide (PEPSCAN-ELISA) [1]: 0.2; Binding of serum 37 to linear peptide (PEPSCAN-ELISA) [1]: 0.8; Binding of serum 62 to linear peptide (PEPSCAN-ELISA) [1]: 0.7; Binding of serum London to linear peptide (PEPSCAN-ELISA) [1]: 0.5; Binding of serum SARS-green to linear peptide (PEPSCAN-ELISA) [1]: 0.5; Binding of serum SARS-yellow to linear peptide (PEPSCAN-ELISA) [1]: 0.7; Recognition of the peptide by the rabbit serum [2]: recognized |
| TLLPAADMDDFSRQL | 0.3 | 0.4 | 0.2 | 0.2 | 0.2 | 0.5 | 0.4 | 0.1 | 1.0 | 0.4 | 0.1 | 0.2 | 0.0 | 0.4 | 0.1 | 0.1 |  |  |  |  | Binding of serum 62 to linear peptides of protein N of SARS-CoV Urbani [1]: 0.7; Binding of serum London to linear peptides of protein N of SARS-CoV Urbani [1]: 0.6; Binding of serum SARS-green to linear peptides of protein N of SARS-CoV Urbani [1]: 0.7; Binding of serum SARS-yellow to linear peptides of protein N of SARS-CoV Urbani [1]: 0.7; Binding of a rabbit serum to linear peptides of protein N of SARS-CoV Urbani (Rabbit serum linear peptides) [2]: 0.1; Binding of a rabbit serum to looped/cyclic peptides of protein N of SARS-CoV Urbani (Rabbit serum looped peptides) [2]: 0.0; Control Serum Blood-Bank Looped peptides [4]: 0.5; Control serum Blood-bank linear peptides [4]: 0.7; Control serum LUMC linear peptides [4]: 0.8; Control serum LUMC looped peptides [4]: 0.4 |
| TQAFGRRGPEQTQGN |  | 0.3 |  | 0.2 |  | 0.4 |  | 0.3 |  | 0.5 | 0.5 | 0.4 | 0.3 | 0.2 | 0.1 | 0.2 | 0.7 | 0.8 | 0.7 | 0.6 | Binding of serum 1a to linear peptide (PEPSCAN-ELISA) [1]: 0.2; Binding of serum 1b to linear peptide (PEPSCAN-ELISA) [1]: 0.1; Binding of serum 2 to linear peptide (PEPSCAN-ELISA) [1]: 0.2; Binding of serum 6 to linear peptide (PEPSCAN-ELISA) [1]: 0.2; Binding of serum 37 to linear peptide (PEPSCAN-ELISA) [1]: 0.6; Binding of serum 62 to linear peptide (PEPSCAN-ELISA) [1]: 0.5; Binding of serum London to linear peptide (PEPSCAN-ELISA) [1]: 0.5; Binding of serum SARS-green to linear peptide (PEPSCAN-ELISA) [1]: 0.3; Binding of serum SARS-yellow to linear peptide (PEPSCAN-ELISA) [1]: 0.5; Recognition of the peptide by the rabbit serum [2]: recognized |
